The experiment concerns the target T1, FGFR1-GST (Homo sapiens, UniProt P11362).
T1 construct: GST; made in house
Briefly: FGFR-1 TR-FRET biochemical assay. The method, then:
FGFR-1 TR-FRET Biochemical Assay
The FGFR-1 Assay was performed on half well 96-well opaque plates (Costar 3915) in a LANCE format. LANCE is a homogenous time resolved fluormetry based application available through Perkin Elmer. For this assay, 50 uL reactions were set up using: 0.6 uM ATP (Sigma), 25 nM poly GT-biotin (CIS BIO International), 2 nM Eu-labelled phospho-Tyr Ab (PY20 PerkinElmer), 10 nM Streptavidin-APC (Perkin Elmer), 5 nM FGFR1-GST (generated by DRT, Bayer Healthcare), 1% DMSO, 50 mM HEPES pH 7.5, 10 mM MgCl2, 0.1 mM EDTA, 0.015% Brij, 0.1 mg/ml BSA, 0.1% B-mercaptoethanol. All reactions were initiated with the addition of enzyme and were left to incubate for one hour at room temperature. Time-resolved fluorescence was then read on a Perkin Elmer VictorV Multilabel counter. The reading protocol uses an excitation wavelength at 340 nm and emission reads at both 615 and 665 nm. Signal was calculated as a ratio: (Fluorescence at 665 nm/Fluorescence at […])*10000 for each well. The background control used for this assay is the signal produced with all assay components excluding ATP. For IC50 generation, compounds were added prior to the enzyme initiation. A 50-fold stock plate was made with compounds serially diluted 1:5 in a 50% DMSO/50% dH2O solution. A 1 μL addition of the stock to the assay wells gave final compound concentrations ranging from 10 μM −0.128 nM in 1% DMSO. The data were expressed as percent inhibition: % inhibition=100−((Signal with inhibitor-background)/(Signal without inhibitor−background))*100.

Among the data in patent US8829185B2 (Bayer HealthCare LLC, priority 2005, dated 2014) are IC50 values, retold here.

A value given as a limit tells only on which side of the number the result lay.

T1 sequence (P11362 22-822): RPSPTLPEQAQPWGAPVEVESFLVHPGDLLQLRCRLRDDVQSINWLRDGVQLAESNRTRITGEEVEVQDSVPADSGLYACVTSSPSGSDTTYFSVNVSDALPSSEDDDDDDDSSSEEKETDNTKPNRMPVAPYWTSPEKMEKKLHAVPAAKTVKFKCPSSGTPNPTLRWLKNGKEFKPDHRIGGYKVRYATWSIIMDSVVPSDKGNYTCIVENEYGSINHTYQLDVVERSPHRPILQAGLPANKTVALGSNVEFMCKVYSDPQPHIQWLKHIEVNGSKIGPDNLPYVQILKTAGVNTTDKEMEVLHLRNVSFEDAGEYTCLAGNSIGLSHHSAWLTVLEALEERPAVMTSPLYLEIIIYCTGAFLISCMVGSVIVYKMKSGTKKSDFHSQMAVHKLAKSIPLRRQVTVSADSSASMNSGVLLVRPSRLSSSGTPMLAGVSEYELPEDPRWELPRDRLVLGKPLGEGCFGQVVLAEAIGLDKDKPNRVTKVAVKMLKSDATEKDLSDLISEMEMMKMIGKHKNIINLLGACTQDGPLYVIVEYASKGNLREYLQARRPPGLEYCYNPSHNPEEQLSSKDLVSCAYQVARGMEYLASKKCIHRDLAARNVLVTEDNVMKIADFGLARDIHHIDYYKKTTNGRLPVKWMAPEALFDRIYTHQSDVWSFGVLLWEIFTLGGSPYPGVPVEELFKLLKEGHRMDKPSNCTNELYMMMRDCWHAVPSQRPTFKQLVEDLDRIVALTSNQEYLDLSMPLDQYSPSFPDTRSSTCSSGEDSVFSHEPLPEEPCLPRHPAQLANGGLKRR

Where the note is “bounds given in nM”, `COCc1c(-c2ccc(NC(=O)Nc3cc(C(F)(F)F)ccc3F)cc2)c2c(N)ncnn2c1CN1CCNC(=O)C1` [Example 19, N-(4-{4-amino-6-(methoxymethyl)-7-[(3-oxopiperazin-1-yl)methyl]pyrrolo[2,1-f][1,2,4]triazin-5-yl}phenyl)-N′-[2-fluoro-5-(trifluoromethyl)phenyl]urea] showed an IC50 of less than 10 nM.

Under “bounds given in nM”, `Cc1c(-c2cc(F)c(NC(=O)Nc3cc(C(F)(F)F)ccc3F)cc2F)c2c(N)ncnn2c1CN1CCOCC1` [Example 123, N-{4-[4-amino-6-methyl-7-(morpholin-4-ylmethyl)pyrrolo[2,1-f][1,2,4]triazin-5-yl]-2,5-difluorophenyl}-N′-[2-fluoro-5-(trifluoromethyl)-phenyl]urea] displayed an IC50 of 10 to 100 nM. As to `Nc1ncnn2c(CN3CCOCC3)c(C(O)C3CC3)c(-c3ccc(NC(=O)Nc4cc(C(F)(F)F)ccc4F)cc3)c12` (stereo not drawn) [Example 106, N-4-[4-amino-6-[cyclopropyl(hydroxy)methyl]-7-(morpholin-4-ylmethyl)pyrrolo[2,1-f][1,2,4]triazin-5-yl]phenyl-N′-[2-fluoro-5-(trifluoromethyl)phenyl]urea], where the note is “bounds given in nM”, the IC50 fell in the range of 10 to 100 nM. `N#CCc1c(-c2ccc(NC(=O)Nc3cc(C(F)(F)F)ccc3F)cc2)c2c(N)ncnn2c1CN1CCNC(=O)C1` [Example 70, N-(4-{4-amino-6-(cyanomethyl)-7-[(3-oxopiperazin-1-yl)methyl]pyrrolo[2,1-f][1,2,4]triazin-5-yl}phenyl)-N′-[2-fluoro-5-(trifluoromethyl)phenyl]urea] displayed an IC50 (bounds given in nM) of less than 10 nM. `COCc1c(-c2ccc(NC(=O)Nc3cc(C(F)(F)F)ccc3F)c(F)c2)c2c(N)ncnn2c1CN1CCOC(CO)C1` (stereo not drawn) [Example 47, N-{4-[4-amino-7-{[2-(hydroxymethyl)morpholin-4-yl]methyl}-6-(methoxymethyl)pyrrolo[2,1-f][1,2,4]triazin-5-yl]-2-fluorophenyl}-N′-[2-fluoro-5-(trifluoromethyl)-phenyl]urea] yielded an IC50 (bounds given in nM) of 10 to 100 nM.

Regarding `COCc1c(-c2ccc(NC(=O)Nc3cc(C)ccc3F)c(F)c2)c2c(N)ncnn2c1CN1CCOCC1` [Example 131, N-{4-[4-amino-6-(methoxymethyl)-7-(morpholin-4-ylmethyl)-pyrrolo[2,1-f][1,2,4]triazin-5-yl]-2-fluorophenyl}-N′-(2-fluoro-5-methyl-phenyl)urea], the IC50 (bounds given in nM) was less than 10 nM.

In turn, `COCc1c(-c2ccc(NC(=O)Nc3cc(C(F)(F)F)ccc3F)c(F)c2)c2c(N)ncnn2c1CN1CCS(=O)(=O)CC1` [Example 43, N-{4-[4-amino-7-[(1,1-dioxidothiomorpholin-4-yl)methyl]-6-(methoxymethyl)pyrrolo[2,1-f][1,2,4]triazin-5-yl]-2-fluorophenyl}-N′-[2-fluoro-5-(trifluoromethyl)phenyl]urea] gave an IC50 (bounds given in nM) of 10 to 100 nM. The same measure, in the same setting: to `CN1CCN(Cc2c(-c3cnco3)c(-c3ccc(NC(=O)Nc4cc(C(F)(F)F)ccc4F)cc3)c3c(N)ncnn23)CC1` [Example 31, N-4-[4-amino-7-[(4-methylpiperazin-1-yl)methyl]-6-(1,3-oxazol-5-yl)pyrrolo[2,1-f][1,2,4]triazin-5-yl]phenyl-N′-[2-fluoro-5-(trifluoromethyl)phenyl]urea] belongs less than 10 nM; to `CC(=O)c1c(-c2ccc(NC(=O)Nc3cccc(C(F)(F)F)c3)c(F)c2)c2c(N)ncnn2c1CN1CCOCC1` [Example 58, N-4-[6-acetyl-4-amino-7-(morpholin-4-ylmethyl)pyrrolo[2,1-f][1,2,4]triazin-5-yl]-2-fluorophenyl-N′-[3-(trifluoromethyl)phenyl]urea], less than 10 nM; to `N#CCc1c(-c2ccc(NC(=O)Nc3cc(C(F)(F)F)ccc3Cl)c(F)c2)c2c(N)ncnn2c1CN1CCS(=O)(=O)CC1` [Example 83, N-(4-{4-amino-6-(cyanomethyl)-7-[(1,1-dioxidothiomorpholin-4-yl)methyl]pyrrolo[2,1-f][1,2,4]triazin-5-yl}-2-fluorophenyl)-N′-[2-chloro-5-(trifluoromethyl)phenyl]urea], less than 10 nM.

Consider `N#CCc1c(-c2ccc(NC(=O)Nc3cc(C(F)(F)F)ccc3F)cc2)c2c(N)ncnn2c1CN1CCNCC1` [Example 75, N-(4-{4-amino-6-(cyanomethyl)-7-(piperazin-1-ylmethyl)pyrrolo[2,1-f][1,2,4]triazin-5-yl}phenyl)-N′-[2-fluoro-5-(trifluoromethyl)phenyl]urea], for which the IC50 (bounds given in nM) is less than 10 nM. Still for that read-out and setting: the same measure for `COCCNCc1c(COC)c(-c2ccc(NC(=O)Nc3cc(C(F)(F)F)ccc3F)cc2)c2c(N)ncnn12` [Example 15, N-{4-[4-amino-7-{[(2-methoxyethyl)amino]methyl}-6-(methoxymethyl)pyrrolo[2,1-f][1,2,4]triazin-5-yl]phenyl}-N′-[2-fluoro-5-(trifluoromethyl)phenyl]urea]: 10 to 100 nM; for `CC(=O)c1c(-c2ccc(NC(=O)Nc3ccc(OC(F)(F)F)cc3)c(F)c2)c2c(N)ncnn2c1CN1CCOCC1` [Example 59, N-4-[6-acetyl-4-amino-7-(morpholin-4-ylmethyl)pyrrolo[2,1-f][1,2,4]triazin-5-yl]-2-fluorophenyl-N′-[4-(trifluoromethoxy)phenyl]urea]: 10 to 100 nM. Same read-out and setting: the same measure for `COCc1c(-c2ccc(NC(=O)Nc3cc(C(F)(F)F)ccn3)cc2)c2c(N)ncnn2c1CN1CCOCC1` [Example 35, N-4-[4-amino-6-(methoxymethyl)-7-(morpholin-4-ylmethyl)pyrrolo[2,1-f][1,2,4]triazin-5-yl]phenyl-N′-[4-(trifluoromethyl)pyridin-2-yl]urea]: 10 to 100 nM; for `CC(=O)c1c(-c2ccc(NC(=O)Nc3cc(C(F)(F)F)ccc3F)c(F)c2)c2c(N)ncnn2c1CN1CCOCC1` [Example 57, N-4-[6-acetyl-4-amino-7-(morpholin-4-ylmethyl)pyrrolo[2,1-f]-[1,2,4]triazin-5-yl]-2-fluorophenyl-N′-[2-fluoro-5-(trifluoromethyl)phenyl]urea]: 10 to 100 nM.

`Nc1ncnn2c(CN3CCOCC3)c(-c3cnco3)c(-c3ccc(NC(=O)Nc4cc(C(F)(F)F)ccc4F)cc3)c12` [Example 26, N-4-[4-amino-7-(morpholin-4-ylmethyl)-6-(1,3-oxazol-5-yl)pyrrolo[2,1-f][1,2,4]triazin-5-yl]phenyl-N′-[2-fluoro-5-(trifluoromethyl)phenyl]urea]: the IC50 (bounds given in nM) is less than 10 nM. Still for that read-out and setting: the same measure for `N#CCc1c(-c2ccc(NC(=O)Nc3cc(C(F)(F)F)ccc3F)cc2)c2c(N)ncnn2c1CN1CCOCC1` [Example 68, N-{4-[4-amino-6-(cyanomethyl)-7-(morpholin-4-ylmethyl)-pyrrolo[2,1-f][1,2,4]triazin-5-yl]phenyl}-N′-[2-fluoro-5-(trifluoromethyl)-phenyl]urea]: less than 10 nM; for `Nc1ncnn2c(CN3CCOCC3)c(C(F)F)c(-c3ccc(NC(=O)Nc4cc(C(F)(F)F)ccc4F)c(F)c3)c12` [Example 99, N-{4-[4-amino-6-(difluoromethyl)-7-(morpholin-4-ylmethyl)-pyrrolo[2,1-f][1,2,4]triazin-5-yl]-2-fluorophenyl}-N′-[2-fluoro-5-(trifluoromethyl)phenyl]urea]: 10 to 100 nM; for `CC(=O)c1c(-c2ccc(NC(=O)Nc3cc(C(F)(F)F)ccn3)cc2)c2c(N)ncnn2c1CN1CCN(C)CC1` [Example 96, N-(4-{6-acetyl-4-amino-7-[(4-methylpiperazin-1-yl)methyl]pyrrolo[2,1-f][1,2,4]triazin-5-yl}phenyl)-N′-[4-(trifluoromethyl)-pyridin-2-yl]urea]: 10 to 100 nM.

As to `Nc1ncnn2c(CN3CCOCC3)c(-c3cnco3)c(-c3ccc(NC(=O)Nc4cc(C(F)(F)F)ccn4)cc3)c12` [Example 27, N-4-[4-amino-7-(morpholin-4-ylmethyl)-6-(1,3-oxazol-5-yl)pyrrolo[2,1-f][1,2,4]triazin-5-yl]phenyl-N′-[4-(trifluoromethyl)pyridin-2-yl]urea], for the setting “bounds given in nM”, the IC50 is less than 10 nM. Still for that read-out and setting: to `Cc1c(-c2ccc(NC(=O)Nc3cc(C(F)(F)F)ccc3F)cc2)c2c(N)ncnn2c1CN1CCCOCC1` [Example 117, N-{4-[4-amino-6-methyl-7-(1,4-oxazepan-4-ylmethyl)pyrrolo[2,1-f][1,2,4]triazin-5-yl]phenyl}-N′-[2-fluoro-5-(trifluoromethyl)phenyl]urea] belongs less than 10 nM; to `CNCc1c(-c2ccc(NC(=O)Nc3cc(C(F)(F)F)ccc3F)cc2)c2c(N)ncnn2c1CN1CCOCC1` [Example 109, N-4-[4-amino-6-[(methylamino)methyl]-7-(morpholin-4-ylmethyl)pyrrolo[2,1-f][1,2,4]triazin-5-yl]phenyl-N′-[2-fluoro-5-(trifluoromethyl)phenyl]urea], 10 to 100 nM. In the case of `N#Cc1c(C(=O)O)c(-c2ccc(NC(=O)Nc3cc(C(F)(F)F)ccn3)cc2)c2c(N)ncnn12` [Example 8, 4-amino-7-cyano-5-{4-[({[4-(trifluoromethyl)pyridin-2-yl]amino}carbonyl)amino]phenyl}pyrrolo[2,1-f][1,2,4]triazine-6-carboxylic acid], the IC50 is more than 100 nM (bounds given in nM) and less than 1000 nM (upper bound in μM).
